Here are results for 8 molecules from patent US20210047278A1, “E3 UBIQUITIN LIGASE AGONISTS, PHARMACEUTICAL COMPOSITIONS INCLUDING THE E3 UBIQUITIN LIGASE AGONISTS, RELATED METHODS OF USE” (FRED HUTCHINSON CANCER RESEARCH CENTER, priority 2018, published 2021).

What all share (assay type): binding
The target of assay [1] is T1, FBW7^ARG (RLFBW7) alone (Homo sapiens, UniProt Q969H0, R505L).
T1 construct: GST (TEV site and flexible linker) (N, cleaved yes); made in house; host or cells: SF9 insect cells (baculovirus)
Nature of the assay: Counterscreen 1 ALPHAscreen with FBW7^ARG alone (CSRUN1/DCSRUN1). To be noted: dose-response counterscreen; for Emax: read-out: RLFBW7 ACT DCSRUN1 Averaged Max % Response. The procedure, abridged: (§1)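 Dose-response in triplicate, 10 points in 3-fold steps with a top concentration near 87 μM. Each counterscreen lacks one partner (FBW7^ARG alone or pCycE alone), giving signal not due to the binding pair. Activity is % activation versus WT-FBW7+pCycE; positive threshold 10%.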
A general note: Counterscreens check selectivity or assay interference.

In assay [2] the target is T2, FBW7^ARG+pCycE (Homo sapiens, UniProt Q969H0, R505L).
T2 construct: GST (TEV site and flexible linker) (N, cleaved yes); made in house; host or cells: SF9 insect cells (baculovirus)
The assay can be described thus: FBW7^ARG-cyclin E agonist ALPHAscreen (primary PRUN, confirmation CRUN1, dose-response DRUN). To be noted: for EC50 / Emax: DRUN dose-response; for Emax: relative to WT-FBW7+pCycE, read-out: FBW7 ACT Averaged Max % Response. Summed up: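 Compounds tested once at 26.1 μM (primary; confirmation in triplicate) or in a triplicate 10-point 3-fold dilution up to ~87 μM (dose-response). Bridging of 25 nM mutant FBW7 R505L to 25 nM biotinylated phosphorylated cyclin E peptide detected by Ni-acceptor/streptavidin-donor ALPHA signal, normalized to WT-FBW7+pCycE.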
For orientation: Alpha assays give light when donor and acceptor beads are brought close together.

The subject of assay [3] is pCycE alone. Nature of the assay: Counterscreen 2 ALPHAscreen with cyclin E phosphopeptide alone (CSRUN2/DCSRUN2). To be noted: for CyCEP ACT DCSRUN2 Averaged Max % Response: activation relative to WT-FBW7+pCycE, averaged maximum; for EC50: dose-response, triplicate, 10 point 3-fold dilutional series, read-out: CyCEP ACT DCSRUN2 Final EC50. The procedure, abridged:
as §1

[4] abbreviates: raw curve fit, read-out: RLFBW7 ACT DCSRUN1 EC50 Curve Fit Raw.
The mark [5] stands for this setting: read-out: RLFBW7 ACT DCSRUN1 Final EC50.
The mark [6] stands for this setting: raw curve fit, read-out: FBW7 ACT EC50 Curve Fit Raw, Molar.
[7] abbreviates: triplicate, 10 point 3-fold dilution, max approx. 87 μM, read-out: FBW7 ACT Final EC50, Molar.
The mark [8] stands for this setting: confirmation assay, triplicate, single concentration 26.1 μM, read-out: FBW7 ACT CRUN1 Avg % Response and Stdev.
[9] abbreviates: primary screen, 1536-well, 26.1 μM, FBW7^ARG + pCycE degron peptide, high control wt-FBW7+pCycE, read-out: FBW7 ACT PRUN % Response.

The EC50 is the concentration giving half of the maximal effect.

Where two headings read alike, the source gives them in different places.

T1 sequence (Q969H0 64-707 R505L): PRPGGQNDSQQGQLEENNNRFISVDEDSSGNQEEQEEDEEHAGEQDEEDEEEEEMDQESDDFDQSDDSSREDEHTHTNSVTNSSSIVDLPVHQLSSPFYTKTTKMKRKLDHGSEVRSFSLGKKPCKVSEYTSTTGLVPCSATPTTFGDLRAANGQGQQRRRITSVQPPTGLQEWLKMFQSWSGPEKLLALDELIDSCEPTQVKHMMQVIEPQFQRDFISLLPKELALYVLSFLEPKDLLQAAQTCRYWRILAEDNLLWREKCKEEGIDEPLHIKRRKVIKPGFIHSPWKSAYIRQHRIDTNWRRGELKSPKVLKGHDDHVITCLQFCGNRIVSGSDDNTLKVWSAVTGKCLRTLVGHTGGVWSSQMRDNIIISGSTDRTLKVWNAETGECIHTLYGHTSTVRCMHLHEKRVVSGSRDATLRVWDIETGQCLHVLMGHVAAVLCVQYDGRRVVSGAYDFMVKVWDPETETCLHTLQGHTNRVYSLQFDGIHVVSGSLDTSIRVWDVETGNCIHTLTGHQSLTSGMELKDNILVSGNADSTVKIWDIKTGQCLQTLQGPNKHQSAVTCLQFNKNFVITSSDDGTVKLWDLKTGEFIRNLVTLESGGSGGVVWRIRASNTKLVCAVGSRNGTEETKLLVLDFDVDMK
T1 sequence (P63208 2-163 partner): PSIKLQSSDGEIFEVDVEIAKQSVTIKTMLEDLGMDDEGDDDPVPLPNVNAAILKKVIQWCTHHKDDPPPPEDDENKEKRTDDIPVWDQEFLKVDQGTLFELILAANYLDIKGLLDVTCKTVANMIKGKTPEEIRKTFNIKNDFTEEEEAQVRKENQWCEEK
T2 sequence (Q969H0 64-707 R505L): as the sequence (Q969H0 64-707 R505L) above
T2 sequence (P63208 2-163 partner): as the sequence (P63208 2-163 partner) above

As for `NC(c1nc2cc(-c3ccncc3)cnc2[nH]1)c1ccc(F)cc1F.O=C(O)C(F)(F)F` (stereo not shown) [SR-00000003416-1], the EC50 in assay [1] (setting [4]) is 4 µM; in assay [1] (setting [5]), above 65.3 µM; in assay [2] (setting [6]), 8.8 µM; in assay [2] (setting [7]), above 65.3 µM; in assay [3] it was above 65.3 µM. Also, the results for the Emax in assay [1] and in assay [2] were 0.2% and 16.4%, respectively. Moreover, the activation at 26.1 µM in assay [2] (setting [8]) is 3.91 ± 0.47%; in assay [2] (setting [9]), 3.51%. Also, the “CyCEP ACT DCSRUN2 Averaged Max % Response” value in assay [3] is 0.29%.
With `CCOc1ccc(Br)cc1C1C2=C(CCCC2=O)N(CC(=O)O)C2=C1C(=O)CCC2` [SR-01000476712-1], the EC50 was 0.0052 µM in assay [1] (setting [4]); above 43.6 µM in assay [1] (setting [5]); 0.0054 µM in assay [2] (setting [6]); above 43.6 µM in assay [2] (setting [7]); above 43.6 µM in assay [3]. Moreover, the Emax turned out to be 1.87% in assay [1] and 8.52% in assay [2]. Further, the results for the activation at 26.1 µM in assay [2] (setting [8]) and in assay [2] (setting [9]) were 3.84 ± 1.06% and 1.93%, respectively. Further, the “CyCEP ACT DCSRUN2 Averaged Max % Response” value in assay [3] is recorded as 2.30%.
For `CCOC(=O)c1sc2ncn(CC(=O)NCCC3=CCCCC3)c(=O)c2c1C` [SR-01000119175-1], the Emax in assay [1] was determined as 0.7%; in assay [2], 10.3%. Besides, the activation at 26.1 µM was 2.53 ± 0.13% in assay [2] (setting [8]) and 2.18% in assay [2] (setting [9]). In assay [3], the “CyCEP ACT DCSRUN2 Averaged Max % Response” value amounted to 0.13%. Moreover, the EC50 in assay [3] is above 65.3 µM.
As for `CCSc1nnc(C2CCN(CC(=O)Nc3cccc4ccccc34)CC2)n1C` [SR-01000349710-1], the EC50 was 47.6 µM in assay [1] (setting [4]); above 65.3 µM in assay [1] (setting [5]); 18 µM in assay [2] (setting [6]); above 65.3 µM in assay [2] (setting [7]); above 65.3 µM in assay [3]. Moreover, the Emax in assay [1] amounted to 0.67%; in assay [2], 22.9%. In addition, the activation at 26.1 µM in assay [2] (setting [8]) stood at 7.92 ± 0.35%; in assay [2] (setting [9]), 2.77%. For the same molecule, the “CyCEP ACT DCSRUN2 Averaged Max % Response” value in assay [3] is 0.22%.
Consider `O=c1c2cnn(-c3ccccc3)c2nnn1Cc1cccnc1` [SR-01000355082-1], for which the EC50 in assay [1] (setting [4]) is 11.9 µM; in assay [1] (setting [5]), above 65.3 µM; in assay [2] (setting [6]) it was 0.009 µM; in assay [2] (setting [7]), above 65.3 µM; in assay [3], above 65.3 µM. Also, the Emax in assay [1] was 2.7%; in assay [2], 6.4%. Moreover, the activation at 26.1 µM in assay [2] (setting [8]) stood at 2.54 ± 0.42%; in assay [2] (setting [9]) it was 1.95%. The “CyCEP ACT DCSRUN2 Averaged Max % Response” value in assay [3] was 0.12%.
As for `CC1=C(C(=O)OCCc2ccccc2)C(c2ccc(Cl)cc2Cl)C2=C(CC(C)(C)CC2=O)N1` (stereo not shown) [SR-01000419178-1], the EC50 in assay [1] (setting [4]) was 0.0785 µM; in assay [1] (setting [5]), above 45.8 µM; in assay [2] (setting [6]), 16.4 µM; in assay [2] (setting [7]) it was above 45.8 µM; in assay [3], above 45.8 µM. Also, the Emax turned out to be 3.8% in assay [1] and 9.01% in assay [2]. The activation at 26.1 µM is 4.54 ± 0.53% in assay [2] (setting [8]) and 2.09% in assay [2] (setting [9]). The “CyCEP ACT DCSRUN2 Averaged Max % Response” value in assay [3] is 0.09%.
Consider `COc1ccccc1C1C(C(=O)OC2CCCC2)=C(C)NC2=C1C(=O)CC(c1ccccc1)C2` (stereo not shown) [SR-01000422836-1], for which the concentration giving a half-maximal response (EC50) in assay [1] (setting [4]) was 16.4 µM; in assay [1] (setting [5]), above 45.9 µM; in assay [2] (setting [6]), 2400 µM; in assay [2] (setting [7]), above 45.9 µM; in assay [3], above 45.9 µM. For the same molecule, the Emax is 4.23% in assay [1] and 10.3% in assay [2]. Further, the activation at 26.1 µM in assay [2] (setting [8]) is 5.59 ± 0.74%; in assay [2] (setting [9]) it was 2.6%. Further, the “CyCEP ACT DCSRUN2 Averaged Max % Response” value in assay [3] is on record as 0.14%.
Regarding `COc1ccc(SCC(=O)NNC(=S)Nc2ccccc2)cc1` [SR-01000526835-1], the concentration giving a half-maximal response (EC50) in assay [1] (setting [4]) was 7.5 µM; in assay [1] (setting [5]) it was above 56.6 µM; in assay [2] (setting [6]) it was 7.3 µM; in assay [2] (setting [7]) it was above 56.6 µM; in assay [3] it was above 56.6 µM. The Emax in assay [1] is 2.56%; in assay [2], 10.1%. The activation at 26.1 µM worked out at 2.1 ± 0.29% in assay [2] (setting [8]) and 2.07% in assay [2] (setting [9]). Moreover, the “CyCEP ACT DCSRUN2 Averaged Max % Response” value in assay [3] came out at 2.80%.
